Experimental data as given in EP1298214A2, “Plant thioesterases” (Calgene LLC, priority 1990, dated 1991).

Assays:
[1] = system: pET3a-THI0 E. coli lysate (truncated Bay 12:0-ACP thioesterase); assay: Acyl-ACP hydrolysis by lysate of E. coli expressing truncated Bay thioesterase cDNA; assay type: biochemical, Umbellularia californica; settings: 1 hour induction with 1mM IPTG
Protocol: (§1) To assay for C12 thioesterase activity the following mixture is incubated at 30° for 30 min: "buffer" comprising 7mM KH2PO4-KOH pH 8, 20% v/v glycerol, 1mM dithiothreitol (DTT), 0.1% v/v Triton X100; sample to be tested for activity in the same or similar buffer as the "extraction buffer" described in Example 2; and 5µl of ^14C-radiolabeled lauroyl-ACP substrate for a total volume of 100µl and final lauroyl-ACP concentration of 0.5µM. Lauroyl-ACP substrate is prepared according to the method of Rock et al (Methods in Enzymology (1981) 72:397-403), using ACP prepared from Escherichia coli by the method of Rock and Cronan (Methods in Enzymology (1981) 71:341-351). The laurate is radiolabeled in the carboxylate group at a specific radioactivity of 50-60µCi/µmol.
The reaction is stopped by adding 0.5ml cold (0°) 10% v/v acetic acid. The fatty acid product of the hydrolytic enzyme action is extracted away from the unhydrolyzed substrate by adding 1ml diethyl ether and mixing vigorously. After settling for a few minutes the upper ether layer is transferred to 5ml scintillation fluid for determination of radioactivity by liquid scintillation spectrometry. Additional ether extractions may be performed to recover remaining traces of the reaction product for more accurate quantitation of the enzyme activity if desired. The amount of ether-extracted radioactivity is a direct measure of C12-preferring acyl-ACP thioesterase activity, provided the amount of enzyme is not sufficient to hydrolyze more than about 25% of the substrate. With greater activity than this the relationship between radioactivity in the ether layer and the quantity of enzyme becomes markedly nonlinear. The enzyme preparation must then be diluted appropriately to bring the activity into the linear range of the assay.
A pET3a vector (Rosenberg, et al., Gene (1987) 56:125-135) is used in an E. coil strain BL21 (PE3) (Studier and Moffat, J. Mol. Biol. (1986) 189:113-130) host for this study. The pET3a vector contains a promoter and 33 bp of the 5' reading frame of bacteriophase T7. T7 polymerase is under the regulatory control of an isopropyl-b-D-thiogalactopyranoside (IPTG)-inducible lac UV5 promoter found in the E. coli BL21 (DE3) strain. Thus, by the addition of IPTG to E. coli BL21 (DE3) transformed with pET3a, the T7 promoter will be activated.
Constructs are prepared containing the truncated cDNA of Fig. 2 fused in reading frame by deletion of the BamHI/EcoRI fragment and replacement of the thioesterase sequence. E. coli are transformed with pET3a constructs containing the thioesterase (pET3a-THI0) and unmodified pET3a as a control. The E. coli are grown at 37°C in liquid medium and expression is induced by the addition of 1mM IPTG. […]

[2] = system: material which fails to bind the ACP column (Lauroyl-CoA hydrolysis activity); assay: Substrate hydrolysis (ACP versus CoA) by peak unbound fraction of the ACP column; assay type: biochemical, Umbellularia californica; settings: Flow-through (nonbinding) fraction; cpm of ether-extractable product
Protocol: as §1
(§2) The reaction is stopped by adding 0.5ml cold (0°) 10% v/v acetic acid. […] After settling for a few minutes the upper ether layer is transferred to 5ml scintillation fluid for determination of radioactivity by liquid scintillation spectrometry. Additional ether extractions may be performed to recover remaining traces of the reaction product for more accurate quantitation of the enzyme activity if desired. The amount of ether-extracted radioactivity is a direct measure of C12-preferring acyl-ACP thioesterase activity, provided the amount of enzyme is not sufficient to hydrolyze more than about 25% of the substrate. […]

[3] = target: T1, Bay C12-preferring acyl-ACP thioesterase (Umbellularia californica, UniProt Q41635); assay: Substrate hydrolysis (ACP versus CoA) by peak gradient-eluted fraction of the ACP column; assay type: biochemical; parameters: The cotyledons from such seeds are dissected from the other seed parts and stored frozen at -70°; This comprises the source tissue for enzyme extraction; from tissue; host or cells: immature seed cotyledons of Umbellularia californica; settings: cpm of ether-extractable product
T1 sequence (Q41635 84-382): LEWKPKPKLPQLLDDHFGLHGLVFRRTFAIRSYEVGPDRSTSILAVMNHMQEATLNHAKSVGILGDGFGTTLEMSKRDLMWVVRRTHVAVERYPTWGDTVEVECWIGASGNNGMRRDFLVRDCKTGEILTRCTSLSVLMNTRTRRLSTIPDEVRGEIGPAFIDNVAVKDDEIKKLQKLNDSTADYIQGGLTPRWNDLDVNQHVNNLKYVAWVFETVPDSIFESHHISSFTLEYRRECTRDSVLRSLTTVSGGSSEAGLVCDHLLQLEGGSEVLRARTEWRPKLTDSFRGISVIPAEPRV
Protocol: as §1, §2

Row | Substance | Hydrolysis Activity (mean cpm in ether extract) [1] | Activity on Substrate [2] | Activity on Substrate [3]
1 | 14:0-ACP | 1035 cpm | – | –
2 | 16:0-ACP | 1900 cpm | – | –
3 | decanoyl-ACP [10:0-ACP] | 621 cpm | – | –
4 | lauroyl-ACP [12:0-ACP] | 2127 cpm | 300 cpm | 2772 cpm
